Experimental data from US8535901B2, “Peptidase substrates” (bioMérieux, S.A., priority 2009, dated 2013).

Tests used:
Type in all cases: cell-based
[1] = tested on: Citrobacter freundii NCTC 9750; assay: Colony color on lactose/sucrose agar medium with pH indicator; conditions: indicator 0.05 g/l with lactose, sucrose and 5-bromo-4-chloro-3-indoxyl-β-D-glucopyranoside 0.05 g/l, 24 hours at 37° C., visual
Experimental: (§1) Seven strains of microorganisms originating from the NCTC collection and belonging to various species of bacteria are inoculated onto these media by quadrant streaking of 10 μl of a suspension at 0.5 McFarland diluted to a 1/20.

[2] = tested on: Enterobacter aerogenes NCTC 10 102; assay: as above; conditions: indicator 0.05 g/l with lactose, sucrose and 5-bromo-4-chloro-3-indoxyl-β-D-glucopyranoside 0.05 g/l, 24 hours at 37° C., visual
Experimental: as §1

[3] = tested on: Klebsiella pneumoniae NCTC 10 896; assay: as above; conditions: indicator 0.05 g/l with lactose, sucrose and 5-bromo-4-chloro-3-indoxyl-β-D-glucopyranoside 0.05 g/l, 24 hours at 37° C., visual
Experimental: as §1

[4] = tested on: Enterobacter cloacae NCTC 11 936; assay: as above; conditions: indicator 0.05 g/l with lactose, sucrose and 5-bromo-4-chloro-3-indoxyl-β-D-glucopyranoside 0.05 g/l, 24 hours at 37° C., visual
Experimental: as §1

[5] = tested on: Shigella boydii NCTC 9327; assay: as above; conditions: indicator 0.05 g/l with lactose, sucrose and 5-bromo-4-chloro-3-indoxyl-β-D-glucopyranoside 0.05 g/l, 24 hours at 37° C., visual
Experimental: as §1

[6] = tested on: Escherichia coli NCTC 12 076; assay: as above; conditions: indicator 0.05 g/l with lactose, sucrose and 5-bromo-4-chloro-3-indoxyl-β-D-glucopyranoside 0.05 g/l, 24 hours at 37° C., visual
Experimental: as §1

[7] = tested on: Morganella morganii NCTC 235; assay: as above; conditions: indicator 0.05 g/l with lactose, sucrose and 5-bromo-4-chloro-3-indoxyl-β-D-glucopyranoside 0.05 g/l, 24 hours at 37° C., visual
Experimental: as §1

[8] = tested on: Streptococcus pyogenes NCTC 8 306; assay: Peptidase detection on Columbia medium with substrate; set-up: key to Grow. (growth): NG: No growth; 0.5: weak growth; 1: moderate growth; 2: good growth; conditions: 40 mg substrate in 400 ml Columbia medium, 24 hours at 37° C.
Experimental: (§2) The 6 media were distributed into Petri dishes 90 mm in diameter, in a proportion of 20 ml per dish.
(§3) Seventeen strains of microorganisms stemming from collections and belonging to various species of bacteria and yeasts are inoculated in spots of approximately 10 000 colony-forming units.
(§4) The media are incubated for 24 hours at 37° C., and then the colonies formed are examined visually, with or without the addition of acid and under a UV lamp at 365 nm.

[9] = tested on: Candida glabrata NCPF 3 943; assay: as above; set-up: key to Grow. (growth): NG: No growth; 0.5: weak growth; 1: moderate growth; 2: good growth; conditions: 40 mg substrate in 400 ml Columbia medium, 24 hours at 37° C.
Experimental: as §2, §3, §4

[10] = tested on: Yersinia enterocolitica NCTC 11 176; assay: as above; set-up: key to Grow. (growth): NG: No growth; 0.5: weak growth; 1: moderate growth; 2: good growth; conditions: 40 mg substrate in 400 ml Columbia medium, 24 hours at 37° C.
Experimental: as §2, §3, §4

[11] = tested on: Providencia rettgeri NCTC 7 475; assay: as above; set-up: key to Grow. (growth): NG: No growth; 0.5: weak growth; 1: moderate growth; 2: good growth; conditions: 40 mg substrate in 400 ml Columbia medium, 24 hours at 37° C.
Experimental: as §2, §3, §4

[12] = tested on: Enterococcus faecalis NCTC 775; assay: as above; set-up: key to Grow. (growth): NG: No growth; 0.5: weak growth; 1: moderate growth; 2: good growth; conditions: 40 mg substrate in 400 ml Columbia medium, 24 hours at 37° C.
Experimental: as §2, §3, §4

[13] = tested on: Serratia marcescens NCTC 10 211; assay: as above; set-up: key to Grow. (growth): NG: No growth; 0.5: weak growth; 1: moderate growth; 2: good growth; conditions: 40 mg substrate in 400 ml Columbia medium, 24 hours at 37° C.
Experimental: as §2, §3, §4

[14] = tested on: Enterococcus faecium NCTC 7 171; assay: as above; set-up: key to Grow. (growth): NG: No growth; 0.5: weak growth; 1: moderate growth; 2: good growth; conditions: 40 mg substrate in 400 ml Columbia medium, 24 hours at 37° C.
Experimental: as §2, §3, §4

[15] = tested on: Candida albicans ATCC 90 028; assay: as above; set-up: key to Grow. (growth): NG: No growth; 0.5: weak growth; 1: moderate growth; 2: good growth; conditions: 40 mg substrate in 400 ml Columbia medium, 24 hours at 37° C.
Experimental: as §2, §3, §4

[16] = tested on: Staphylococcus aureus NCTC 6 571; assay: as above; set-up: key to Grow. (growth): NG: No growth; 0.5: weak growth; 1: moderate growth; 2: good growth; conditions: 40 mg substrate in 400 ml Columbia medium, 24 hours at 37° C.
Experimental: as §2, §3, §4

[17] = tested on: Escherichia coli NCTC 10 418; assay: as above; set-up: key to Grow. (growth): NG: No growth; 0.5: weak growth; 1: moderate growth; 2: good growth; conditions: 40 mg substrate in 400 ml Columbia medium, 24 hours at 37° C.
Experimental: as §2, §3, §4

[18] = tested on: Bacillus subtilis NCTC 9 372; assay: as above; set-up: key to Grow. (growth): NG: No growth; 0.5: weak growth; 1: moderate growth; 2: good growth; conditions: 40 mg substrate in 400 ml Columbia medium, 24 hours at 37° C.
Experimental: as §2, §3, §4

[19] = tested on: Pseudomonas aeruginosa NCTC 10 662; assay: as above; set-up: key to Grow. (growth): NG: No growth; 0.5: weak growth; 1: moderate growth; 2: good growth; conditions: 40 mg substrate in 400 ml Columbia medium, 24 hours at 37° C.
Experimental: as §2, §3, §4

[20] = tested on: Staphylococcus aureus NCTC 11 939; assay: as above; set-up: key to Grow. (growth): NG: No growth; 0.5: weak growth; 1: moderate growth; 2: good growth; conditions: 40 mg substrate in 400 ml Columbia medium, 24 hours at 37° C.
Experimental: as §2, §3, §4

[21] = tested on: Listeria monocytogenes NCTC 11 994; assay: as above; set-up: key to Grow. (growth): NG: No growth; 0.5: weak growth; 1: moderate growth; 2: good growth; conditions: 40 mg substrate in 400 ml Columbia medium, 24 hours at 37° C.
Experimental: as §2, §3, §4

[22] = tested on: Enterobacter cloacae NCTC 11 936; assay: as above; set-up: key to Grow. (growth): NG: No growth; 0.5: weak growth; 1: moderate growth; 2: good growth; conditions: 40 mg substrate in 400 ml Columbia medium, 24 hours at 37° C.
Experimental: as §2, §3, §4

[23] = tested on: Salmonella typhimurium NCTC 74; assay: as above; set-up: key to Grow. (growth): NG: No growth; 0.5: weak growth; 1: moderate growth; 2: good growth; conditions: 40 mg substrate in 400 ml Columbia medium, 24 hours at 37° C.
Experimental: as §2, §3, §4

[24] = tested on: Staphylococcus epidermidis NCTC 11 047; assay: as above; set-up: key to Grow. (growth): NG: No growth; 0.5: weak growth; 1: moderate growth; 2: good growth; conditions: 40 mg substrate in 400 ml Columbia medium, 24 hours at 37° C.
Experimental: as §2, §3, §4

Nc1ccc(C=Cc2ccncc2)cc1 [4-4′-Aminostyrylpyridine, 4-(4′-Aminostyryl)pyridine]
Colony color [1]: Yellow | Colony color [2]: Green | Colony color [3]: Green | Colony color [4]: Green | Colony color [5]: Colorless | Colony color [6]: Yellow | Colony color [7]: Colorless

C[n+]1ccc(C=Cc2ccc(NC(=O)CCN)cc2)cc1.[Cl-] [β-Ala-ASPM^+, β-Alanyl-4-(4′-amidostyryl)-N-methyl-pyridinium chloride]
Grow. (growth) [8]: 1 | Col. (colour of the colonies) ([8]; visual): Pale green | Grow. (growth) [9]: 1 | Col. (colour of the colonies) ([9]; visual): Pale green | Grow. (growth) [10]: 2 | Col. (colour of the colonies) ([10]; visual): Pale green | Grow. (growth) [11]: 2 | Col. (colour of the colonies) ([11]; visual): Green | Grow. (growth) [12]: 2 | Col. (colour of the colonies) ([12]; visual): Pale green | Grow. (growth) [13]: 2 | Col. (colour of the colonies) ([13]; visual): Orange | Grow. (growth) [14]: 2 | Col. (colour of the colonies) ([14]; visual): Pale green | Grow. (growth) [15]: 2 | Col. (colour of the colonies) ([15]; visual): Pale green | Grow. (growth) [16]: 2 | Col. (colour of the colonies) ([16]; visual): Green | Grow. (growth) [17]: 2 | Col. (colour of the colonies) ([17]; visual): Green | Grow. (growth) [18]: 2 | Col. (colour of the colonies) ([18]; visual): Pale green | Grow. (growth) [19]: 2 | Col. (colour of the colonies) ([19]; visual): Orange | Grow. (growth) [20]: 2 | Col. (colour of the colonies) ([20]; visual): Green | Grow. (growth) [21]: 2 | Col. (colour of the colonies) ([21]; visual): Pale green | Grow. (growth) [22]: 2 | Col. (colour of the colonies) ([22]; visual): Green | Grow. (growth) [23]: 1 | Col. (colour of the colonies) ([23]; visual): Pale green | Grow. (growth) [24]: 2 | Col. (colour of the colonies) ([24]; visual): Green
